Legend:
[1] = DRUGMATRIX: Platelet-Derived Growth Factor (PDGF) radioligand binding (ligand: [125I] PDGF); type: cell-based; conditions: nih3t3; Not Active = under 50% inhibition at 10 µM
[2] = biological target: T1, 5-hydroxytryptamine receptor 1A (Rattus norvegicus, UniProt P19327); type: cell membranes, CHO-K1, Membrane; conditions: cho-k1; also: in other assays of this panel Not Active means under 50% inhibition at 10 µM
T1 sequence (P19327 whole entry): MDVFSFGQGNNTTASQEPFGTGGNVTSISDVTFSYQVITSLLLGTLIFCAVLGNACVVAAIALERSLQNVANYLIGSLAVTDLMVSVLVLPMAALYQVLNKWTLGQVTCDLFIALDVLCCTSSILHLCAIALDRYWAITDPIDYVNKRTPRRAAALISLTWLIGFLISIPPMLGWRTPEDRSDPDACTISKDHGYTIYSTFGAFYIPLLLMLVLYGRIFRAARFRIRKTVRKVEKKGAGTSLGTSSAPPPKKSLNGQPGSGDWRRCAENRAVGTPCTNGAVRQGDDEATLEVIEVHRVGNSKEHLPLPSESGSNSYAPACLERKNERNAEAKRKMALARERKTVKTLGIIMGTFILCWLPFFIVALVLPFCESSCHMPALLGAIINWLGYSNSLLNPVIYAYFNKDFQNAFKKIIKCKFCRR

[3] = DRUGMATRIX: Phosphodiesterase PDE4 enzyme inhibition (substrate: [3H]cAMP + cAMP); conditions: u-937; Not Active = under 50% inhibition at 10 µM
[4] = biological target: T2, Neuropeptide Y receptor type 1 (Homo sapiens, UniProt P25929); type: cell membranes, Membrane; conditions: sk-n-mc; also: in other assays of this panel Not Active means under 50% inhibition at 10 µM
T2 sequence (P25929 whole entry): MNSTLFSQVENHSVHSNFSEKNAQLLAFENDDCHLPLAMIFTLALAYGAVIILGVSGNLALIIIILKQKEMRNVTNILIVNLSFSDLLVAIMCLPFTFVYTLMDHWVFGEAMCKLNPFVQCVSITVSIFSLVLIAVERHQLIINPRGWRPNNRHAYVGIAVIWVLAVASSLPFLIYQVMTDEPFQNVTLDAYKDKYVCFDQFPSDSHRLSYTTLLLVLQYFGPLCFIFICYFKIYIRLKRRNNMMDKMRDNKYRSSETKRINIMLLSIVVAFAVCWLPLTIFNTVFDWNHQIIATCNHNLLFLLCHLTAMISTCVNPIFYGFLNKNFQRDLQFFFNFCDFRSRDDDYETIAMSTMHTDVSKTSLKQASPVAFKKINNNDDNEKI

[5] = biological target: T3, C-X-C chemokine receptor type 2 (Homo sapiens, UniProt P25025); type: cell membranes, Membrane; conditions: cho-k1; also: in other assays of this panel Not Active means under 50% inhibition at 10 µM
T3 sequence (P25025 whole entry): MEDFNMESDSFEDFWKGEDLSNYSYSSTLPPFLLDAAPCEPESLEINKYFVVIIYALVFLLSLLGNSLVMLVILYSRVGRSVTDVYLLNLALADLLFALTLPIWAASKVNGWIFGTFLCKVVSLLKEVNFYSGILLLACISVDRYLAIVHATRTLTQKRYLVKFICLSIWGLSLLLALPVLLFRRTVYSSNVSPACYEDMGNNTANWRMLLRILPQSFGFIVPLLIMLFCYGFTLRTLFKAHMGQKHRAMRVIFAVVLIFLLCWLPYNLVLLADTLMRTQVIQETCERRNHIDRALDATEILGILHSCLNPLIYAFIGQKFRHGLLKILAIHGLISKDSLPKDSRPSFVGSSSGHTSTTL

[6] = biological target: T4, Vasoactive intestinal polypeptide receptor 1 (Homo sapiens, UniProt P32241); type: cell membranes, Membrane; conditions: ht-29; also: in other assays of this panel Not Active means under 50% inhibition at 10 µM
T4 sequence (P32241 whole entry): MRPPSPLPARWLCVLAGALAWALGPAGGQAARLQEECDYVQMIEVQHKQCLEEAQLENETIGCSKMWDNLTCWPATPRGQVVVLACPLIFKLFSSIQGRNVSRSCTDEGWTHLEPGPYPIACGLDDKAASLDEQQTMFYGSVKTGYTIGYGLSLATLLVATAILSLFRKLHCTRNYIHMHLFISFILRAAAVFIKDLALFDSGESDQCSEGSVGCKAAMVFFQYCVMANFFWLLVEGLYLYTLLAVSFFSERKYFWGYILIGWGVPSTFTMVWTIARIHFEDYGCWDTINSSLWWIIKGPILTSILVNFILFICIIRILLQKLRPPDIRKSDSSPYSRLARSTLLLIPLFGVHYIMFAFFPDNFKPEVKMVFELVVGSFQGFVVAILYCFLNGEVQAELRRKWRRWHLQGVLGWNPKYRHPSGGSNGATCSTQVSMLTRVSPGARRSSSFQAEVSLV

[7] = DRUGMATRIX: Serotonin (5-Hydroxytryptamine) 5-HT3 radioligand binding (ligand: [3H] GR-65630); type: cell membranes, Membrane; conditions: hek293; Not Active = under 50% inhibition at 10 µM
[8] = DRUGMATRIX: Calcium Channel Type L, Phenylalkylamine radioligand binding (ligand: [3H] (-)-Desmethoxyverapamil (D-888)); type: cell membranes, Rattus norvegicus, Wistar, Brain, Membrane; conditions: Not Active = under 50% inhibition at 10 µM
Substance-K receptor = biological target: T5, Substance-K receptor (Homo sapiens, UniProt P21452); type: cell membranes, CHO, Membrane; conditions: cho; also: in other assays of this panel Not Active means under 50% inhibition at 10 µM
T5 sequence (P21452 whole entry): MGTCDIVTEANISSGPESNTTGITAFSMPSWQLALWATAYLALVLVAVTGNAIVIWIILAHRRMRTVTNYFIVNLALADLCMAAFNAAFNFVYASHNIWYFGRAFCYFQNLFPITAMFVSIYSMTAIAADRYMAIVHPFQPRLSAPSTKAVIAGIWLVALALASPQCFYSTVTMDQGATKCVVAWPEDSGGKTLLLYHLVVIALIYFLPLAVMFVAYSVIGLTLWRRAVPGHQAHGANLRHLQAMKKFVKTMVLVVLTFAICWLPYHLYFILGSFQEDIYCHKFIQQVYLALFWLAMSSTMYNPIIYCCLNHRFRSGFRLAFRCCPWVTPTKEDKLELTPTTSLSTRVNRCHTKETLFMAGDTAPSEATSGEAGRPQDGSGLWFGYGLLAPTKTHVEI

Adenosine receptor A3 = biological target: T6, Adenosine receptor A3 (Homo sapiens, UniProt P0DMS8); type: cell membranes, CHO-K1, Membrane; conditions: cho-k1
T6 sequence (P0DMS8 whole entry): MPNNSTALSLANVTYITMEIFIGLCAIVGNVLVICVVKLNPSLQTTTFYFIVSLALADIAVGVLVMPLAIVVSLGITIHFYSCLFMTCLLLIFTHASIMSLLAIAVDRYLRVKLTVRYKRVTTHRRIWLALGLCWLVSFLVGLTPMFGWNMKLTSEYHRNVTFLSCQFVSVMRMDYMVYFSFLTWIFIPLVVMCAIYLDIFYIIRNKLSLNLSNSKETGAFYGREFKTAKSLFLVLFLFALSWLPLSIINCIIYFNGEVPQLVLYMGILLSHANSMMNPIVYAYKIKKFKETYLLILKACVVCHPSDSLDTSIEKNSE

CC[C@@]1(O)C(=O)OCc2c1cc1n(c2=O)Cc2cc3ccccc3nc2-1 [CAMPTOTHECIN]
IC50 [1]: Not Active
Ki [1]: Not Active
IC50 [2]: Not Active
IC50 [3]: Not Active
Ki [3]: Not Active
IC50 [4]: Not Active
IC50 [5]: Not Active
IC50 [6]: Not Active
IC50 [7]: Not Active
Ki [7]: Not Active
IC50 [8]: Not Active
Ki [8]: Not Active
IC50 (Substance-K receptor): Not Active
IC50 (Adenosine receptor A3): Not Active

CISPLATIN
IC50 [1]: Not Active
Ki [1]: Not Active
IC50 [2]: Not Active
Ki [2]: Not Active
IC50 [3]: Not Active
Ki [3]: Not Active
IC50 [4]: Not Active
Ki [4]: Not Active
IC50 ([5]; read-out: IC50): 13.5 µM
Ki ([5]; read-out: Ki): 9.46 µM
IC50 [6]: Not Active
Ki [6]: Not Active
IC50 [7]: Not Active
Ki [7]: Not Active
IC50 [8]: Not Active
Ki [8]: Not Active
IC50 (Substance-K receptor): Not Active
Ki (Substance-K receptor): Not Active
IC50 (Adenosine receptor A3; read-out: IC50): 4.24 µM
Ki (Adenosine receptor A3; read-out: Ki): 2.4 µM

OXALIPLATIN
IC50 [1]: Not Active
Ki [1]: Not Active
IC50 [2]: Not Active
Ki [2]: Not Active
IC50 [3]: Not Active
Ki [3]: Not Active
IC50 [4]: Not Active
Ki [4]: Not Active
IC50 [5]: Not Active
Ki [5]: Not Active
IC50 [6]: Not Active
Ki [6]: Not Active
IC50 [7]: Not Active
Ki [7]: Not Active
IC50 [8]: Not Active
Ki [8]: Not Active
IC50 (Substance-K receptor): Not Active
Ki (Substance-K receptor): Not Active
IC50 (Adenosine receptor A3): Not Active
Ki (Adenosine receptor A3): Not Active

NCC(=O)O [GLYCINE]
IC50 [1]: Not Active
Ki [1]: Not Active
IC50 [2]: Not Active
IC50 [3]: Not Active
Ki [3]: Not Active
IC50 [4]: Not Active
IC50 [5]: Not Active
IC50 [6]: Not Active
IC50 [7]: Not Active
Ki [7]: Not Active
IC50 [8]: Not Active
Ki [8]: Not Active
IC50 (Substance-K receptor): Not Active
IC50 (Adenosine receptor A3): Not Active

O=C1CCc2cc(OCCCCc3nnnn3C3CCCCC3)ccc2N1 [CILOSTAZOL]
IC50 [1]: Not Active
Ki [1]: Not Active
IC50 [2]: Not Active
IC50 [3]: Not Active
Ki [3]: Not Active
IC50 [4]: Not Active
IC50 [5]: Not Active
IC50 [6]: Not Active
IC50 [7]: Not Active
Ki [7]: Not Active
IC50 [8]: Not Active
Ki [8]: Not Active
IC50 (Substance-K receptor): Not Active
IC50 (Adenosine receptor A3): Not Active

Source: ChEMBL document CHEMBL1909046, “DrugMatrix in vitro pharmacology data”
